# Experimental data from patent US4388235A, “Synthesis of peptides” (Armour Pharmaceutical Company, priority 1982, dated 1983).
# Positions of bridges follow the written chain, without caps; N, C: chain ends. Residues, ends and D or L forms follow the SMILES beside them.
# Experiment: biological potency assay of the purified product (MRC units)
# Assay type: in vivo
# Conditions: freeze-dried product of Example 1
structure (smiles),measurement,value
"CC(C)C[C@H](NC(=O)[C@H](CCCCN)NC(=O)CNC(=O)[C@H](CC(C)C)NC(=O)[C@@H](NC(=O)[C@@H]1CSSC[C@H](N)C(=O)N[C@@H](CO)C(=O)N[C@@H](CC(N)=O)C(=O)N[C@@H](CC(C)C)C(=O)N[C@@H](CO)C(=O)N[C@@H]([C@@H](C)O)C(=O)N1)C(C)C)C(=O)N[C@@H](CO)C(=O)N[C@@H](CCC(N)=O)C(=O)N[C@@H](CCC(=O)O)C(=O)N[C@@H](Cc1c[nH]cn1)C(=O)N[C@@H](CCCCN)C(=O)N[C@@H](CC(C)C)C(=O)N[C@@H](CCC(N)=O)C(=O)N[C@H](C(=O)N[C@@H](Cc1ccc(O)cc1)C(=O)N1CCC[C@H]1C(=O)N[C@@H](CCCNC(=N)N)C(=O)N[C@H](C(=O)N[C@@H](CC(N)=O)C(=O)N[C@H](C(=O)NCC(=O)N[C@@H](CO)C(=O)NCC(=O)N[C@H](C(=O)N1CCC[C@H]1C(N)=O)[C@@H](C)O)[C@@H](C)O)[C@@H](C)O)[C@@H](C)O [des Leu^16 -SCT, Des-Leu^16 -salmon calcitonin] (H-CSNLSTCVLGKLSQEHKLQTYPRTNTGSGTP-NH2; disulfide 1-7)",assayed potency,580 MRC units per mg
